Experimental data published in paper PMC3315833 (Tetrahedron, 2012).

What was measured:
[1] = tested on: MCF-7 breast cancer cells; assay: Cytotoxicity against MCF-7 cells; details: read-out: IC50, cytotoxicity against MCF-7 cells
[2] = tested on: HT-29 colon cancer cells; assay: Cytotoxicity against HT-29 cells; details: read-out: IC50, cytotoxicity against HT-29 cells
[3] = Structural stability in DMSO-d6; assay type: physicochemical

Row | structural stability in DMSO-d6 [3] | SMILES | IC50 [1] [µM] | IC50 [2] [µM]
1 |  | C=C[C@]1(C)CC[C@H]2C(=C1C#N)c1c([nH]c3ccccc13)C2(C)C (relative stereo) [Compound 2, deschloro 12-epi-fischerindole I nitrile] | > 40 | 23
2 | structurally unstable | C=C[C@]1(C)[C@H](Cl)Cc2cc(C)c3[nH]c4ccccc4c3c2[C@@H]1C#N (relative stereo) [Compound 3, 12-epi-fischerindole W nitrile] |  | 
3 | structurally unstable | C=C[C@]1(C)CCc2cc(C)c3[nH]c4ccccc4c3c2[C@@H]1C#N (relative stereo) [Compound 4, deschloro 12-epi-fischerindole W nitrile] |  | 
